According to patent publication US8362022B2, “Selective subtype alpha 2 adrenergic agents and methods for use thereof” (Allergan, Inc., priority 2008, dated 2013):
Where two headings read alike, the source gives them in different places.

Tests used:
Type in all cases: cell-based
[1] = target: T1, Alpha 1A (Homo sapiens, UniProt P35348); experiment: RSAT assay (Receptor Selection and Amplification Technology), Alpha 1A; settings: value in parentheses, ratio of maximal effect of drug to maximal effect of standard full agonist
T1 sequence (P35348 1-466): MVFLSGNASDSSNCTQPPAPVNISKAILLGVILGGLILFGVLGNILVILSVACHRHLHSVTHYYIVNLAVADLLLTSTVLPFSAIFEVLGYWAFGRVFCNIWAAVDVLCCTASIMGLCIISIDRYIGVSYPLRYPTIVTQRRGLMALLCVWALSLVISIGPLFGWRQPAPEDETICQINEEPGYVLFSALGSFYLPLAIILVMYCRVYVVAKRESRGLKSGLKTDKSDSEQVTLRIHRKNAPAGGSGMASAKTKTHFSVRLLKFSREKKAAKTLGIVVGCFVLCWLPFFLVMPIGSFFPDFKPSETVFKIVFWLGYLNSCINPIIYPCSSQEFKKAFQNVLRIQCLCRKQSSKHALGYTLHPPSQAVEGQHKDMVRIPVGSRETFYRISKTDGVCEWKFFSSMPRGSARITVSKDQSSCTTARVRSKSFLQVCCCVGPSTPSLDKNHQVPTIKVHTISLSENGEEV
Method: (§1) The RSAT assay measures a receptor-mediated loss of contact inhibition that results in selective proliferation of receptor-containing cells in a mixed population of confluent cells. The increase in cell number is assessed with an appropriate transfected marker gene such as β-galactosidase, the activity of which can be easily measured in a 96-well format. Receptors that activate the G protein, Gq, elicit this response. Alpha 2 receptors, which normally couple to Gi, activate the RSAT response when coexpressed with a hybrid Gq protein that has a Gi receptor recognition domain, called Gq/i5.
(§2) NIH-3T3 cells are plated at a density of 2×10^6 cells in 15 cm dishes and maintained in Dulbecco's modified Eagle's medium supplemented with 10% calf serum. One day later, cells are cotransfected by calcium phosphate precipitation with mammalian expression plasmids encoding p-SV-β-galactosidase (5-10 μg), receptor (1-2 μg) and G protein (1-2 μg). 40 μg salmon sperm DNA may also be included in the transfection mixture. […] Cells are thawed and 100 μl added to 100 μL aliquots of various concentrations of drugs in triplicate in 96-well dishes. Incubations continue 72-96 hr at 37° C. After washing with phosphate-buffered saline, β-galactosidase enzyme activity is determined by adding 200 μL of the chromogenic substrate (consisting of 3.5 mM o-nitrophenyl-β-D-galactopyranoside and 0.5% nonidet P-40 in phosphate buffered saline), incubating overnight at 30° C. and measuring optical density at 420 nm. The absorbance is a measure of enzyme activity, which depends on cell number and reflects a receptor-mediated cell proliferation. The efficacy or intrinsic activity is calculated as a ratio of the maximal effect of the drug to the maximal effect of a standard full agonist for each receptor subtype. Brimonidine, the chemical structure of which is shown below, is used as the standard agonist for the alpha 2B and alpha 2C receptors. […] NA stands for “not active” at concentrations less than 3-10 micromolar.

[2] = target: T2, alpha 2C receptor (Homo sapiens, UniProt P18825); experiment: RSAT assay (Receptor Selection and Amplification Technology), Alpha 2C; settings: for Intrinsic Activity efficacy Alpha 2C: value in parentheses, ratio of maximal effect to that of brimonidine
T2 construct: expressed in transfected cells; host or cells: NIH-3T3
T2 sequence (P18825 1-462): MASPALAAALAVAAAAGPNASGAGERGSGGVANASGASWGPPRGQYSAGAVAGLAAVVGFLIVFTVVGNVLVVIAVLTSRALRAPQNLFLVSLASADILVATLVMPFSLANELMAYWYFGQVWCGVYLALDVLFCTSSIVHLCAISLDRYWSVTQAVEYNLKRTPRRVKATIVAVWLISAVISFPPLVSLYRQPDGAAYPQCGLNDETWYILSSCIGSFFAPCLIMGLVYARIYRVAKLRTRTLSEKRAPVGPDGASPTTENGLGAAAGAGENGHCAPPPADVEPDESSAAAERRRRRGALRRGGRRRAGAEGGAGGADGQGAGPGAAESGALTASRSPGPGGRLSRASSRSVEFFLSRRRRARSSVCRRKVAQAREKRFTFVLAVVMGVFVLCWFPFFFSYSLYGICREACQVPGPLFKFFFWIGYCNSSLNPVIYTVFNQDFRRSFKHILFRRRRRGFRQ
Method: as §1, §2

[3] = target: T3, alpha 2B receptor (Homo sapiens, UniProt P18089); experiment: RSAT assay (Receptor Selection and Amplification Technology), Alpha 2B; settings: for Intrinsic Activity efficacy Alpha 2B: value in parentheses, ratio of maximal effect to that of brimonidine
T3 construct: expressed in transfected cells; host or cells: NIH-3T3
T3 sequence (P18089 1-450): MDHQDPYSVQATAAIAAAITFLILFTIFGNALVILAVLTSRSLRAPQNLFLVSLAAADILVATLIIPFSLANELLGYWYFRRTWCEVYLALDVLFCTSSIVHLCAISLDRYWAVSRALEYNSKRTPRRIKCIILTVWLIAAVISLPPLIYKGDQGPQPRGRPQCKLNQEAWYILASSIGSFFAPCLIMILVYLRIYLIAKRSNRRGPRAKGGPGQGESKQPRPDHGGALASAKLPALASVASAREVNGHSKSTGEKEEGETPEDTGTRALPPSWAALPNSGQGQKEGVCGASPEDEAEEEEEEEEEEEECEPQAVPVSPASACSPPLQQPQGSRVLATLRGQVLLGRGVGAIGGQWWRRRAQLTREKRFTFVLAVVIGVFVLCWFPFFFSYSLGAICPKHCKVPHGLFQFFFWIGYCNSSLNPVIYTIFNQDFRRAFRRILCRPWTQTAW
Method: as §1, §2

[4] = RSAT, transfected NIH-3T3 cells with Gq/i5, NA = not active at concentrations less than 10 micromolar, read-out: potency nM (EC50) Alpha 2C
[5] = RSAT, transfected NIH-3T3 cells with Gq/i5, Table 1, read-out: potency nM (EC50) Alpha 2B

Compound | Intrinsic Activity efficacy Alpha 1A [1] | EC50 [2, 4] | Intrinsic Activity efficacy Alpha 2C ([2]; RSAT) | EC50 [3] | Intrinsic Activity efficacy Alpha 2B ([3]; RSAT, Table 1) | EC50 [3, 5] | EC50 [2]
c1ccc(C(Cc2ccncc2)/N=C2/NCCO2)cc1 (centres unmarked) [Compound 1, N-(Oxazolidin-2-ylidene)-1-phenyl-2-(pyridin-4-yl)ethanamine] | 1.20 | 132 nM | 0.67 | 8 nM | 1.09 | – | –
c1ccc(C(Cc2ccncc2)/N=C2/NCCS2)cc1 (centres unmarked) [Compound 2, 1-Phenyl-2-(pyridin-4-yl)-N-(thiazolidin-2-ylidene)ethanamine] | 1.45 | 525 nM | 0.72 | – | 1.18 | 10 nM | –
Cc1cccc(C(Cc2ccncc2)/N=C2/NCCS2)c1C (centres unmarked) [Compound 4, 1-(2,3-Dimethylphenyl)-2-(pyridin-4-yl)-N-(thiazolidin-2-ylidene)ethanamine] | 0.77 | 14 nM | 0.63 | – | 1.1 | 3.8 nM | –
Cc1cccc(C(Cc2ccncc2)/N=C2/NCCO2)c1C (centres unmarked) [Compound 6, 1-(2,3-Dimethylphenyl)-N-(oxazolidin-2-ylidene)-2-(pyridin-4-yl)ethanamine] | 0.88 | 80 nM | 0.68 | – | 1.1 | 2.1 nM | –
COc1ccccc1C(Cc1cccnc1)/N=C1/NCCS1 (centres unmarked) [Compound 11, 1-(2-Methoxyphenyl)-2-(pyridin-3-yl)-N-(thiazolidin-2-ylidene)ethanamine] | 1.6 | 17 nM | 0.86 | – | 0.78 | 17 nM | –
COc1ccccc1C(Cc1cccnc1)/N=C1/NCCO1 (centres unmarked) [Compound 13, 1-(2-Methoxyphenyl)-N-(oxazolidin-2-ylidene)-2-(pyridin-3-yl)ethanamine] | 1.12 | 23 nM | 0.66 | – | 0.62 | 9 nM | –
c1ccc(C(Cc2cnccn2)/N=C2/NCCS2)cc1 (centres unmarked) [Compound 16, 1-Phenyl-2-(pyrazin-2-yl)-N-(thiazolidin-2-ylidene)ethanamine] | 1.1 | 100 nM | 0.5 | – | 0.97 | 170 nM | –
Clc1cccc(C(Cc2ccncc2)/N=C2/NCCO2)c1Cl (centres unmarked) [Compound 17, 1-(2,3-Dichlorophenyl)-N-(oxazolidin-2-ylidene)-2-(pyridin-4-yl)ethanamine] | 1.3 | 30 nM | 0.65 | – | 1.15 | 5 nM | –
Clc1cccc(C(Cc2ccncc2)/N=C2/NCCS2)c1Cl (centres unmarked) [Compound 18, 1-(2,3-Dichlorophenyl)-2-(pyridin-4-yl)-N-(thiazolidin-2-ylidene)ethanamine] | 1.0 | 21 nM | 0.6 | – | 1.1 | 2 nM | –
Fc1cccc(C(Cc2ccncc2)/N=C2/NCCO2)c1 (centres unmarked) [Compound 24, 1-(3-Fluorophenyl)-N-(oxazolidin-2-ylidene)-2-(pyridin-4-yl)ethanamine] | 1.1 | 237 nM | 0.93 | – | 0.98 | 14.3 nM | –
Fc1cccc(C(Cc2ccncc2)N=C2NCCN2)c1 (centres unmarked) [Compound 25, 1-(3-Fluorophenyl)-N-(imidazolidin-2-ylidene)-2-(pyridin-4-yl)ethanamine] | 0.97 | – | 1.03 | 25 nM | 0.68 | – | 16 nM
c1ccc([C@@H](Cc2ccncc2)/N=C2/NCCO2)cc1 [Compound 30, R—N-(oxazolidin-2-ylidene)-1-phenyl-2-(pyridin-4-yl)ethanamine] | 1.1 | – | 0.78 | 6 nM | 1.16 | – | 24 nM
c1ccc([C@@H](Cc2ccncc2)/N=C2/NCCS2)cc1 [Compound 31, R-1-phenyl-2-(pyridin-4-yl)-N-(thiazolidin-2-ylidene)ethanamine] | 1.1 | 6.1 nM | 1.0 | – | 0.64 | 21 nM | –
